Measurements reported in ChEMBL document CHEMBL1144295, “Active site directed inhibitors of replication-specific bacterial DNA polymerases” (Bioorg Med Chem Lett, 2005).

Tests used:
[1] = biological target: T1, DNA polymerase III PolC-type (Bacillus subtilis (strain 168), UniProt P13267); test: Inhibitory constant against DNA polymerases IIIC produced by Bacillus subtilis; (a)
[2] = biological target: T2, DNA polymerase III subunit alpha (Escherichia coli K-12, UniProt P10443); test: Inhibition against DNA polymerases IIIE from Escherichia coli; (a); IN=<10% inhibition at highest concentration tested
T2 sequence (P10443 whole entry): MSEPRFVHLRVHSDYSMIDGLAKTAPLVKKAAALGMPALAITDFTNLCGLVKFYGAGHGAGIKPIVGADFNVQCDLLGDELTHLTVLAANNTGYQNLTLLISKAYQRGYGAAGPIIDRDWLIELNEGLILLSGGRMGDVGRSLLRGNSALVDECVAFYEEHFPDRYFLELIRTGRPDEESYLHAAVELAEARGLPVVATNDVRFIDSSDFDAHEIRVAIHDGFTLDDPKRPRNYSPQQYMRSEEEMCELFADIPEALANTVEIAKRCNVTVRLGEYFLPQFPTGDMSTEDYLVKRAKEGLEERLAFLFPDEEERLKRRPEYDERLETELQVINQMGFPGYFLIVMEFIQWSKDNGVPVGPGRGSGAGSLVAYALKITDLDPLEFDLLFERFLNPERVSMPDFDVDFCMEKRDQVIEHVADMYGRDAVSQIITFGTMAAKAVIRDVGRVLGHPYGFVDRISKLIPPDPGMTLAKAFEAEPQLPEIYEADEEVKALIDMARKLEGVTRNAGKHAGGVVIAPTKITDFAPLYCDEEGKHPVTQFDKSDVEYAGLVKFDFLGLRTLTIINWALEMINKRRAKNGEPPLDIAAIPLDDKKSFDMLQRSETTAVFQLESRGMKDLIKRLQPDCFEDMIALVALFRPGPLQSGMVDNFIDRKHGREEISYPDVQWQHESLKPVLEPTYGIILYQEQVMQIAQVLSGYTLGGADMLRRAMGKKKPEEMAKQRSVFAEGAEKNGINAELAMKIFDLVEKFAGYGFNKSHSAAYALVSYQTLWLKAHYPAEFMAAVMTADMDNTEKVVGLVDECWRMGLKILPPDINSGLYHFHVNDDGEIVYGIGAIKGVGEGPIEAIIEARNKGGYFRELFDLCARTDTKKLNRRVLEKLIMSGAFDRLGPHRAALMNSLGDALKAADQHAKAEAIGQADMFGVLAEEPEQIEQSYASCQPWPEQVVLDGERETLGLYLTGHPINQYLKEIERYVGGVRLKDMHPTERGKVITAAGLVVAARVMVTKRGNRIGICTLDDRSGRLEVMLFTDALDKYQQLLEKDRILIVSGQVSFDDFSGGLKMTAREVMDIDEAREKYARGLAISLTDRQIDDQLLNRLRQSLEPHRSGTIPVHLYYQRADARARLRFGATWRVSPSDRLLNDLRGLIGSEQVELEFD

[3] = biological target: T3, DNA polymerase III subunit alpha (Bacillus subtilis (strain 168), UniProt O34623); test: Inhibition of DNA polymerases IIIE from Bacillus subtilis; (a); IN=<10% inhibition at highest concentration tested
T3 sequence (O34623 whole entry): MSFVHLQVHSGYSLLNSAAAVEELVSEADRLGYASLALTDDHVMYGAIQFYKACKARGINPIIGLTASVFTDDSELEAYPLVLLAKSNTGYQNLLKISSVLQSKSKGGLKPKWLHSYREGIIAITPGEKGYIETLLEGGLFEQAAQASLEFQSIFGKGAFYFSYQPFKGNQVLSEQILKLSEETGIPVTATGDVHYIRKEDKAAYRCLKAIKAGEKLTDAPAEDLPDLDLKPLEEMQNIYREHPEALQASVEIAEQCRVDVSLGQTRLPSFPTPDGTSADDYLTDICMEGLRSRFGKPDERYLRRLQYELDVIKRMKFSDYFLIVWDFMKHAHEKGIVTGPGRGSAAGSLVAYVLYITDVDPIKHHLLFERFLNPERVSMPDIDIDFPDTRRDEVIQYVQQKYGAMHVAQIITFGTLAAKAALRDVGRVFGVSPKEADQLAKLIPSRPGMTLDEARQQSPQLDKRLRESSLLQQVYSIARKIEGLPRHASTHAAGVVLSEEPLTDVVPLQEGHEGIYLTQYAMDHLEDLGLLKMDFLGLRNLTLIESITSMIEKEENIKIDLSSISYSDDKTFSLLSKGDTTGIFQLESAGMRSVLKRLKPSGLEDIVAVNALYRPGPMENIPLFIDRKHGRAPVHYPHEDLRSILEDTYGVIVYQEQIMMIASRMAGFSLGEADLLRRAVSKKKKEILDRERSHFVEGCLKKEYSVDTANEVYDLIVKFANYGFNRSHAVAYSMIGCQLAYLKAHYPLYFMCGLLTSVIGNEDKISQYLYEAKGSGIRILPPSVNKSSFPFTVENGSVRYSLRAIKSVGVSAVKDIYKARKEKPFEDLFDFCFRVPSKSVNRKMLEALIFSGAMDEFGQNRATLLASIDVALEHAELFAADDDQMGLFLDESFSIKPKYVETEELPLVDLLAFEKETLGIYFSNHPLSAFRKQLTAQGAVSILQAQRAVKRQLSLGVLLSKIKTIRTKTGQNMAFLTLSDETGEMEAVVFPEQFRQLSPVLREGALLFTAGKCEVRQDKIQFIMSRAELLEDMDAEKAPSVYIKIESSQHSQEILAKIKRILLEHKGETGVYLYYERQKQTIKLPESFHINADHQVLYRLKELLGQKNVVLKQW

[4] = biological target: T1, DNA polymerase III PolC-type; test: Inhibition of DNA polymerases IIIC produced by Bacillus subtilis; (a); IN=<10% inhibition at highest concentration tested
[5] = biological target: T2, DNA polymerase III subunit alpha; test: Inhibitory constant against DNA polymerases IIIE from Escherichia coli; (a)

T1 sequence (P13267 whole entry): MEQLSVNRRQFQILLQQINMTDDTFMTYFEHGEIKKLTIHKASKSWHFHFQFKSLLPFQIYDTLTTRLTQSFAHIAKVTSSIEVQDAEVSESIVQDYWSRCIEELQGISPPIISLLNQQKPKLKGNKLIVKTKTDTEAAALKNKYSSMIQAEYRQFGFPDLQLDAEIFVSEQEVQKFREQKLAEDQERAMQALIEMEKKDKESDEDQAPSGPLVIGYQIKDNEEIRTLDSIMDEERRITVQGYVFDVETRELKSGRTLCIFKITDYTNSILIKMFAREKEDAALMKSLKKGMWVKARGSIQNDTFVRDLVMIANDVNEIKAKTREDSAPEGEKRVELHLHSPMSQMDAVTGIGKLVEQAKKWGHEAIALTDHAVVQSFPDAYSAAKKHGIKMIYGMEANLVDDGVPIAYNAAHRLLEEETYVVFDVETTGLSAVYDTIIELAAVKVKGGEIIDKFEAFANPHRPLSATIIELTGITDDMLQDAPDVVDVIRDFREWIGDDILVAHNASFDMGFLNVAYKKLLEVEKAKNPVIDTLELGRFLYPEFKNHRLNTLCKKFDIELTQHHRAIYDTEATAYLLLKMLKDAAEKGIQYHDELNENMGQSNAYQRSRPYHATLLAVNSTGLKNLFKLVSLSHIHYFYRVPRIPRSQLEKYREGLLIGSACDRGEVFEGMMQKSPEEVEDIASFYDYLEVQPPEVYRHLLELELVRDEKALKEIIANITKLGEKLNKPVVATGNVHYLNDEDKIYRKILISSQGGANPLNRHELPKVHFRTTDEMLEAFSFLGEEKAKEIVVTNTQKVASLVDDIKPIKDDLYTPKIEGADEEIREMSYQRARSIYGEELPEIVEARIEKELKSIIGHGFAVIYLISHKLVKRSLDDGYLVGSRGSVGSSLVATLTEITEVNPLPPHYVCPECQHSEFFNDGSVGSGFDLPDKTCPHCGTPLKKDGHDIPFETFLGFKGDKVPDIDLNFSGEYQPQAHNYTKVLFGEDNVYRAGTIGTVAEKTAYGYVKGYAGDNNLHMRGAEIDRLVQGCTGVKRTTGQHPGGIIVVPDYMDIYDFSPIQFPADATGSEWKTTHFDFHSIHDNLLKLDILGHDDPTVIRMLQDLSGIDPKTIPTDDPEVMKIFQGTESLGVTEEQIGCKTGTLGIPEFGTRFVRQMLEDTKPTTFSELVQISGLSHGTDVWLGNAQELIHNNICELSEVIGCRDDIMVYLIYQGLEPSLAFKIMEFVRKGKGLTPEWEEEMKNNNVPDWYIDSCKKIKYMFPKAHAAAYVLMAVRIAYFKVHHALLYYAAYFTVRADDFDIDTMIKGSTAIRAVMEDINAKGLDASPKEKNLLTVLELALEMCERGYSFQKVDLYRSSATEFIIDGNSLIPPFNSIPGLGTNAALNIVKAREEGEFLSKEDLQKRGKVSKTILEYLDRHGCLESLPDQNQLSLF

SMILES	Ki [1] [nM]	also measured
CCc1cc(Nc2nc(O)c3[nH]cnc3n2)ccc1C	2700	inhibition [2]: < 10%
CCc1cc(Nc2nc(O)c3c(ncn3CCCCO)n2)ccc1C		inhibition [3]: < 10%; inhibition [2]: < 10%
CS(=O)(=O)CCCCCn1cnc2nc(NCc3ccc(Cl)c(Cl)c3)nc(O)c21	280	
CCc1cc(Nc2nc(O)c3ncn(CCCCO)c3n2)ccc1C		inhibition [3]: < 10%; inhibition [2]: < 10%; inhibition [4]: < 10%
CCOCCn1cnc2c(=O)[nH]c(NCc3ccc(Cl)c(Cl)c3)nc21	116000	
CCOC(=O)CCCn1cnc2nc(NCc3ccc(Cl)c(Cl)c3)[nH]c(=O)c21	150	
CC(C)C(=O)OCCCCCn1cnc2nc(NCc3ccc(Cl)c(Cl)c3)[nH]c(=O)c21	370	
COCCCCCn1cnc2nc(NCc3ccc(Cl)c(Cl)c3)[nH]c(=O)c21	70	
CSCCCCCn1cnc2nc(NCc3ccc(Cl)c(Cl)c3)[nH]c(=O)c21	230	
OCCCCn1cnc2c(O)nc(NCc3ccc(Cl)c(Cl)c3)nc21	712000	
O=C(O)CCCn1cnc2c(=O)[nH]c(NCc3ccc(Cl)c(Cl)c3)nc21	28000	
O=C(O)CCCn1cnc2nc(NCc3ccc(Cl)c(Cl)c3)nc(O)c21	170	
CCOC(=O)CCCn1cnc2c(O)nc(NCc3ccc(Cl)c(Cl)c3)nc21	825000	
C[S+]([O-])CCCCCn1cnc2nc(NCc3ccc(Cl)c(Cl)c3)nc(O)c21 (stereo unspecified)	93	
Oc1[nH]c(NCc2ccc(Cl)c(Cl)c2)nc2ncnc1-2	720	
C[C@@H](O)CCCCn1cnc2nc(NCc3ccc(Cl)c(Cl)c3)[nH]c(=O)c21	52	
O=c1[nH]c(NCc2ccc(Cl)c(Cl)c2)nc2ncn(CCOCCO)c12	370	
CCOCCn1cnc2nc(NCc3ccc(Cl)c(Cl)c3)[nH]c(=O)c21	330	
CC(=O)O[C@H](C)CCCCn1cnc2nc(NCc3ccc(Cl)c(Cl)c3)[nH]c(=O)c21	80	
O=c1cc(NCc2ccc(Cl)c(CCl)c2)[nH]c(=O)[nH]1	420	
CCc1cc(Nc2cc(=O)[nH]c(=O)[nH]2)ccc1C	310	Ki [5]: > 323000 nM
